The target in data set [1] is T1, SARS-CoV-2 M^pro (Severe acute respiratory syndrome coronavirus 2, UniProt P0DTD1). To be noted: for UEMM-GBSA: unsigned error |ΔGMM-GBSA − ΔGexp|; for UEMM-PBSA: unsigned error |ΔGMM-PBSA − ΔGexp|.
In data set [2] the target is T1, SARS-CoV-2 M^pro. Nature of the data set: biochemical.
For data set [3], the target named is T1, SARS-CoV-2 M^pro. To be noted: ref [6], [36]; read-out: IC50 (µM), values in the brackets obtained from other published works (converted); cited from earlier work.
Data set [4] concerns the target T1, SARS-CoV-2 M^pro.
A further data set has as its system norovirus. To be noted: cited from earlier work.
The next data set has as its system SARS-CoV. The following applies: at 1.0 μM; cited from earlier work.
The subject of a further data set is SARS-CoV-2. The following applies: cited from earlier work; for activity in vitro against SARS-CoV-2: molecular targets not reported.
Data set [5] deals with vesicular stomatitis virus (VSV). In kind it is cell-based.
The test system of data set [6] is human ether-a-go-go−related gene (hERG) encoded potassium channel Kv11.1. The following applies: cited from earlier work.
For data set [7], the system named is microsomal prostaglandin E2 synthase 1 (mPGES-1). To be noted: cited from earlier work.

Read-outs that look alike come from different tables or passages of the source.

For orientation: IC50 means the midpoint of a concentration-inhibition curve. Regarding `COC(=O)N[C@H](C(=O)N[C@@H](Cc1ccccc1)[C@@H](O)CN(Cc1ccc(-c2ccccn2)cc1)NC(=O)[C@@H](NC(=O)OC)C(C)(C)C)C(C)(C)C` [Atazanavir, atazanavir], on SARS-CoV-2 M^pro [1], the UEMM-GBSA was 30.6 kcal/mol and the UEMM-PBSA came out at 24.4 kcal/mol. For the same molecule, the ΔGexp on SARS-CoV-2 M^pro [2] (calculated from corresponding Ki values) is reported as -8.6 kcal/mol. In addition, at SARS-CoV-2 M^pro [2] (converted from IC50 based on the assumption of the competitive inhibition without covalent binding, read-out: Ki), the Ki was 0.49 ± 0.02 µM. Also, the IC50 at SARS-CoV-2 M^pro [2] (substrate concentration 20 µM, 500 nM enzyme, ∼50 values estimated from single-concentration assay, read-out: IC50) was 7.5 ± 0.3 µM. Also, the IC50 at SARS-CoV-2 M^pro [3] is 10 µM. On SARS-CoV-2 M^pro [4], this molecule had a UEFEP-ABFE of 0.6 kcal/mol.

At SARS-CoV-2 M^pro [1], `CCN(CC)CCCC(C)Nc1ccnc2cc(Cl)ccc12` (stereo not drawn) [Chloroquine, chloroquine] registered a UEMM-GBSA of 24.7 kcal/mol and a UEMM-PBSA of 16.1 kcal/mol. In addition, in the data set on norovirus, the “sensitivity of norovirus to treatment” value was “hypersensitive”. Also, the “SARS-CoV replication reduced to” value with SARS-CoV is listed as 53%. For the same molecule, the “activity in vitro against SARS-CoV-2” value in the data set on SARS-CoV-2 was “active in vitro”. Further, the UEFEP-ABFE on SARS-CoV-2 M^pro [4] was determined as 1.5 kcal/mol. Further, the “inhibition of VSV” value in [5] is reported as “no significant inhibition”. The IC50 in [6] is 2.5 µM.

For orientation: EC50 means the concentration needed to bring the measured effect to its halfway point. In the case of `OCCN(CCO)c1nc(N2CCCCC2)c2nc(N(CCO)CCO)nc(N3CCCCC3)c2n1` [DIP, dipyridamole], the “inhibition of mPGES-1” value in data set [7] is “weak inhibitor”. In the data set with SARS-CoV-2 (raw antiviral activity data reported separately, read-out: EC50, suppression of SARS-CoV-2 replication), the EC50 was 0.1 µM.

`CCN(CCO)CCCC(C)Nc1ccnc2cc(Cl)ccc12` (stereo not drawn) [Hydroxychloroquine, hydroxychloroquine]: the “activity in vitro against SARS-CoV-2” value in the data set with SARS-CoV-2 was “active in vitro”. In addition, the UEFEP-ABFE at SARS-CoV-2 M^pro [4] was found to be 1.1 kcal/mol. Besides, the “inhibition of VSV” value in [5] is given as “no significant inhibition”. In addition, the IC50 in data set [6] (read-out: IC50, hERG Kv11.1 block) is 10.7 µM.

These data come from article PMC7959488, “Identify potent SARS-CoV-2 main protease inhibitors via accelerated free energy perturbation-based virtual screening of existing drugs” (Proceedings of the National Academy of Sciences of the …, 2020).
